Measurements reported in PubChem BioAssay (NCI).
Several values for one entry are separate records, joined by “and”; a condition that tells them apart may be missing. Identical values can stand only once.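 Grown in 96-well plates, cells were treated for 48 hours with each compound at five concentrations. Insufficient inhibition: endpoint recorded as highest concentration tested. Abbreviation: GI50, concentration required for 50% inhibition of growth. TGI marks complete inhibition of growth.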

Assays:
Experiment in all cases: NCI tumour cell line growth inhibition, 48 h
HCC-2998 colon = system: HCC-2998 colon
RPMI-8226 leukemia = system: RPMI-8226 leukemia
A549 NSCLC = system: A549 NSCLC
NCI-H460 lung = system: NCI-H460 lung
MALME-3M melanoma = system: MALME-3M melanoma
CAKI-1 renal = system: CAKI-1 renal
786-0 renal = system: 786-0 renal
HOP-62 NSCLC = system: HOP-62 NSCLC
SW-620 colon = system: SW-620 colon
A498 renal = system: A498 renal

Row | SMILES | TGI (HCC-2998 colon) | TGI (RPMI-8226 leukemia) | TGI (A549 NSCLC) [µM] | TGI (NCI-H460 lung) | TGI (MALME-3M melanoma) | TGI (CAKI-1 renal) [µM] | TGI (786-0 renal) | TGI (HOP-62 NSCLC) | TGI (SW-620 colon) | GI50 (HCC-2998 colon) | GI50 (RPMI-8226 leukemia) | GI50 (A549 NSCLC) | GI50 (SW-620 colon) | GI50 (A498 renal) [µM] | TGI (A498 renal) [µM] | GI50 (NCI-H460 lung) | GI50 (MALME-3M melanoma) | GI50 (786-0 renal) | GI50 (HOP-62 NSCLC) | GI50 (CAKI-1 renal)
1 | CN1CC[C@]23c4c5ccc(O)c4OC2c2[nH]ncc2C[C@H]3[C@H]1C5 (stereo partly specified) | > 100 µM | > 100 µM | > 100 | > 100 µM | > 100 µM | > 100 | > 100 µM | > 100 µM |  |  |  |  |  |  |  |  |  |  |  | 
2 | COc1ccc2nc(-c3ccc(O)cc3)ccc2c1 | > 100 µM | > 100 µM | > 100 | > 100 µM | > 100 µM |  | > 100 µM | > 100 µM | > 100 µM |  |  |  |  |  |  |  |  |  |  | 
3 | CC(C)(C)c1cc(C(OCCl)(C(F)(F)F)C(F)(F)F)c2c(c1)C(C(F)(F)F)(C(F)(F)F)OC21c2ccccc2C(=O)c2ccccc21 | > 100 µM | > 100 µM | > 100 | > 100 µM | > 100 µM | > 100 | > 100 µM |  | > 100 µM |  |  |  |  |  |  |  |  |  |  | 
4 | CCN(CC)C(=O)CCCCCn1c2ccccc2c2c3c(c4c5ccccc5[nH]c4c21)C(=O)N(O)C3=O | 27.1 µM | 11.3 µM | 98.4 | 15.4 µM | 65.7 µM |  | 5.04 µM | 47.8 µM | > 100 µM | 4.72 µM | 3.06 µM | 21.8 µM | 4.29 µM | 2.86 | 20.3 | 3.62 µM | 8.2 µM | 2.12 µM | 11.6 µM | 
5 | O=CC(O)C(O)C(OC1OC(CO)C(O)C(O)C1O)C(O)CO (stereo unspecified) (tested in a mixture with another compound) |  | 59.2 µM | > 100 | > 100 µM | > 100 µM | > 100 | > 100 µM | > 100 µM | > 100 µM |  |  |  |  |  | > 100 |  |  |  |  | 
6 | O=C(CCC(=O)C1Cc2ccccc2C1=O)Nc1cccc(C(F)(F)F)c1 (stereo unspecified) | > 100 µM |  | > 100 | > 100 µM | > 100 µM | > 100 | > 100 µM | > 100 µM | > 100 µM |  |  |  |  |  |  |  |  |  |  | 
7 | O=c1[nH]c(=O)n(C2CC(O)C(O)C(CO)O2)cc1F (stereo unspecified) | > 100 µM | > 100 µM | > 100 | > 100 µM | > 100 µM |  | > 100 µM | > 100 µM | > 100 µM |  |  |  |  |  | > 100 |  |  |  |  | 
8 | CC(=O)c1c(O)c2c([nH]c1=O)CCCC2 | 53.4 µM |  | > 100 | 30.5 µM | > 100 µM | > 100 | > 100 µM | 46.5 µM | > 100 µM |  |  |  |  |  |  |  |  |  |  | 
9 | O=C(Nc1cccc(-n2cc(-c3ccncc3)c(-c3ccc(O)c(Cl)c3)n2)c1)Nc1ccc(Cl)c(Cl)c1 | > 100 µM | 4.54 µM | 7.27 | 12.4 µM | 6.86 µM |  | 7.12 µM |  | 7.32 µM | 3.65 µM | 1.49 µM | 1.54 µM | 2.63 µM | 1.95 | 7.01 | 2.22 µM | 2.11 µM | 1.58 µM |  | 
10 | O=C(/C=C/c1ccc(Cl)cc1)c1ccc(Cl)s1 | 47.3 µM | 80.1 µM | > 100 | > 100 µM | > 100 µM |  | 90.9 µM | > 100 µM | 55 µM |  |  |  |  |  | > 100 |  |  |  |  | 
11 | CC1CCC2c3c([nH]c4ccccc34)C3C(=O)N(c4ccccc4)C(=O)C3C2C1 (stereo unspecified) | > 250 µM |  | > 250 | > 250 µM | 215 µM | > 250 | 40.6 µM and > 250 µM | 92 µM | > 250 µM |  |  | > 250 µM |  |  |  |  |  | 77.6 µM |  | 
12 | NC(=O)C(=O)Cc1nc2ccccc2s1 | > 100 µM | > 100 µM | > 100 | > 100 µM | > 100 µM |  | > 100 µM | > 100 µM | > 100 µM |  |  |  |  |  | > 100 |  |  |  |  | 
13 | CON(C)C(=O)C(C)NC(=O)OC(C)(C)C (stereo unspecified) | > 100 µM | > 100 µM | > 100 | > 100 µM | > 100 µM |  | > 100 µM | > 100 µM | > 100 µM |  |  |  |  |  | > 100 |  |  |  |  | 
14 | CC(=O)c1sc2c(c1O)c(=O)n(-c1ccccc1)c(=S)n2-c1ccccc1 | > 100 µM | > 100 µM | > 100 | > 100 µM | > 100 µM |  | > 100 µM |  | > 100 µM |  |  |  |  |  |  |  |  |  |  | 
15 | COc1ccc2c3c(c(C(=O)O)oc13)C(CCC(=O)O)CC2 (stereo unspecified) | > 100 µM |  | > 100 | > 100 µM |  | > 100 | > 100 µM | > 100 µM | > 100 µM |  |  |  |  |  | > 100 |  |  |  |  | 
16 | Oc1c(I)cc(Cl)c2cccnc12 | 36 µM and 59.4 µM | 27.2 µM and 10.8 µM | > 100 | > 100 µM and 85.1 µM | 21.6 µM and 46.5 µM |  | 12.6 µM and 17.6 µM | 28.5 µM and 20.1 µM | > 100 µM and 32.5 µM | 5.55 µM and 12.7 µM | 3.43 µM and 2.86 µM | 3.96 µM and 8.89 µM | 4.05 µM and 3.73 µM |  |  | 3 µM and 5.84 µM | 3.97 µM and 16.5 µM | 3.28 µM and 3.86 µM | 4.02 µM and 4.07 µM | 2.38 µM and 21.4 µM
